Tests used:
[1] = test system: 4 EGFR-mutant cell lines in the pool; test: PRISM compound assay, mixture of 25 barcoded lung adenocarcinoma cell lines; assay type: cell-based, human; details: 0–10 μM, 5 days, viability relative to DMSO
[2] = test system: 25 barcoded lung adenocarcinoma cell lines in mixture; test: as above; assay type: cell-based, human; details: 0–10 μg/ml, 5 days, viability relative to DMSO
NCI-H3122 cell line = test: as above; assay type: cell-based, human; details: 0–10 μM, 5 days, in mixture
NCI-H2228 = test: as above; assay type: cell-based, human; details: 0–10 μM, 5 days, in mixture
[3] = test system: BRAF-mutant vs BRAF wild-type cell lines; test: PRISM, 100 barcoded cell lines in 4 pools of 25, BRAF genotype comparison; details: AUC of viability, 100 cell lines, PRISM (and Nuclei, ATP)

## C#Cc1cccc(Nc2ncnc3cc(OCCOC)c(OCCOC)cc23)c1 [erlotinib]
[1]
  Killing of EGFR-mutant cell lines in the pool: dose-dependent killing

## COc1ccc(C[C@H](N)C(=O)N[C@H]2[C@@H](O)[C@H](n3cnc4c(N(C)C)ncnc43)O[C@@H]2CO)cc1 [puromycin]
[2]
  Pattern of cell killing across the pool: uniform killing across the pool

## COc1cc(N2CCC(N3CCN(C)CC3)CC2)ccc1Nc1ncc(Cl)c(Nc2ccccc2S(=O)(=O)C(C)C)n1 [NVP-TAE-684]
NCI-H3122 cell line
  Sensitivity of NCI-H3122 (EML4-ALK translocation): sensitive
NCI-H2228
  Sensitivity of NCI-H2228 (different EML4-ALK translocation): intrinsic resistance

## CCCS(=O)(=O)Nc1ccc(F)c(C(=O)c2c[nH]c3ncc(Cl)cc23)c1F [PLX4720]
[3]
  Differential sensitivity of BRAF-mutant vs BRAF wild-type cell lines: hypersensitivity

## CNC(=O)c1cc(Oc2ccc(NC(=O)Nc3ccc(Cl)c(C(F)(F)F)c3)cc2)ccn1 [sorafenib]
[3]
  Differential sensitivity of BRAF-mutant vs BRAF wild-type cell lines: No significant differential sensitivity

Reference: publication PMC5508574 (Nature biotechnology, 2016)
